Data: patent US10189824B2, “Pyrimidine-diamine dual HSP90/TRAP1 inhibitors” (CalAsia Pharmaceuticals, Inc., priority 2014, dated 2019)

Experiments:
U251MG cells = assay: Cell viability assay, ATP quantitation (ADP-Glo); assay type: cell-based; conditions: Homo sapiens, U-251; 72 h at 37° C.; FIG. 1B
Method: U251MG cells were maintained at 37° C. and 5% CO2 in RPMI media supplemented with glutamax and containing 10% heat-inactivated fetal bovine serum and 1% penicillin/streptomycin (Life Sciences).
A cell counting kit (CCK-8 assay kit, Dojindo) and an ADP-Glo assay (Life Technologies) were used to quantitate the effects of test compounds on cell viability. U251MG cells were seeded into 96 well tissue culture plates and incubated for 16 h at 37° C. with 5% CO2. Increasing concentrations of test compounds were added to the wells from DMSO-containing stock solutions to a final DMSO concentration of 0.05% and incubated for 72 hr at 37° C. CCK-8 kit reagent or ADP-GLO reagent were then added to the wells and absorbance was measured at 450 nm (for the CCK assay) using a Synergy HT micro-titer plate reader (Biotek) or luminescence was measured (for the ADP-GLO assay) using a POLARstar Omega micro-titer plate reader (BMG).

[1] = system: Akt1 levels in U251MG cells; assay: Biomarker quantitation by ELISA, Akt1; assay type: cell-based
Method: U251 cells were plated in 6 well format culture dishes overnight at 37° C. with 5% CO2 and then treated with increasing concentrations of test compounds for 48 h at 37° C. with 5% CO2. Quantification of total Akt1, EGFR, and Hsp70 in cell lysates was accomplished using ELISA kits (R&D Systems) according to the manufacturer's recommendations and utilizing a Synergy HT micro-titer plate reader (Biotek). Cell lysates were prepared as recommended in the kit procedure. Protein concentrations of lysates clarified using centrifugation were determined using a Bradford assay (Thermo Scientific), and the values were used to normalize the biomarker values.

HEI193 cells = assay: TMRE assay, HEI193 cell mitochondrial integrity; assay type: cell-based, human; conditions: observed as early as 2 hours after treatment
Method: Mitochondrial integrity was evaluated using Tetramethylrhodamine ethyl ester (TMRE) assay. A TMRE assay kit (Abcam) was used to evaluate Hsp90/TRAP1 inhibitor-induced changes in mitochondrial membrane potential. […] TMRE (200 nM) was then added to wells for 30 min and monitored for changes in fluorescence activity using a fluorescence plate reader (ex544/em 590) after washing the cells. Specific TMRE fluorescence was calculated by comparison to matched wells pretreated with the depolarizing proton ionophore carbonyl cyanide 4-(trifluoromethoxy)phenylhydrazone (FCCP) at 20 uM 10 min prior to addition of TMRE. For mitochondria assays, mitochondria was isolated using a kit from Thermoscientific and loaded with 0.1 mM TMRE. TMRE-loaded mitochondria (2 μg per well) were incubated with test compounds and monitored kinetically at 30° C. for changes in fluorescence using a flurorescence plate reader (ex 544/em 590) (FIGS. 6A, 9A and 12).

[2] = system: mitochondria isolated from HEI193 cells; assay: Analysis of drug accumulation in the mitochondria; assay type: in vitro ADME, human; conditions: 20 uM
Method: Mitochondria (100 μg) isolated from MDA-MB-231 and […] tumor cell lines were incubated with 20 μM CAP01088 for 30 mins at 30° C. in mitochondrial incubation buffer (MIB: 0.2M sucrose, 10 mM Tris-MOPS, pH 7.4, 5 mM succinaye, 1 mM Pi, 2 μM rotenone, and 10 μM EGTA with modifications as needed). The mitochondria were chilled on ice and collected by centrifugation at 8000 g for 10 min. The supernatant was collected and the mitochondrial pellet was washed twice with MIB and dissolved in lysis buffer (acetonitrile/methanol, 3:1). The concentration of CAP01088 in supernatant and mitochondrial extract was analyzed using a Waters HPLC/Mass spectrometer (FIGS. 6B and 9B).

[3] = system: Hsp90 client proteins (EGFR and Akt1) in Mayo Clinic GBM PDX cell lines; assay: Cellular biomarker assays (EGFR, Akt1 ELISA) in Mayo Clinic GBM PDX cell lines; assay type: cell-based; conditions: 48 hours; three cell lines
[4] = system: Mayo Clinic patient derived GBM tumor cells; assay: Mayo Clinic patient derived GBM tumor cell proliferation; assay type: cell-based; conditions: 132 hours
Method: Short-term explant cultures from PDX models were seeded into 96-well Perfecta3D hanging drop plates to form a single spheroid in each well after 2 days. The spheroids were transferred to a round bottom 96 well plate by centrifugation and then incubated with graded concentrations of test compound (8 spheroids per compound concentration). Spheroid volumes were monitored every 6 hours over the course of 5 days using the IncuCyte system (Essen BioScience, MI, US) to provide a growth curve akin to a tumor regrowth assay.

SMILES	IC50 (U251MG cells)	Reduction of Akt1 levels ([1]; 15.6 uM, 48 h)	IC50 ([1]; Homo sapiens, U-251, 48 h, read-out: Akt1 level reduction IC50)	Effect on TMRE fluorescence in HEI193 cells (HEI193 cells)	Accumulation in isolated mitochondria compared to culture medium [2]	Effect on EGFR and Akt1 levels, GBM PDX cell lines [3]	Effect on patient derived GBM tumor cell proliferation [4]
COc1c(C)cnc(CN(CCc2ccccn2)c2cc(Cl)nc(N)n2)c1C [Compound 1, 6-chloro-4-N-[(4-methoxy-3,5-dimethylpyridin-2yl)methyl]-4-N-[2-(pyridine-2-yl)ethyl]pyrimidine-2,4-amine]	2500 nM	79%	2400 nM	–	–	–	–
COc1c(C)cnc(CN(CC2(c3ccc(F)cc3)CCOCC2)c2cc(Cl)nc(N)n2)c1C [Compound A, 6-chloro-4-N-{[4-(4-fluorophenyl)oxan-4-yl]methyl}-4-N-[(4-methoxy-3,5-dimethylpyridin-2-yl)methyl]pyrimidine-2,4-diamine]	–	–	–	dose-dependent decrease	greater than 6 fold	suppression of Hsp90 client proteins	inhibit
